# Assays:
# Format in all cases: cell-based
# 786-0 = assay: NCI-60 SRB growth inhibition, one-dose and five-dose; details: Homo sapiens
# ACHN = assay: as above; details: Homo sapiens
# COLO 205 = assay: as above; details: Homo sapiens
# LOX IMVI = assay: as above; details: Homo sapiens
# T-47D = assay: as above; details: Homo sapiens, T47D
# PC-3 = assay: as above; details: Homo sapiens
# HL-60(TB) = assay: cells; details: Homo sapiens
# SNB-75 = assay: NCI-60 SRB growth inhibition, one-dose and five-dose; details: Homo sapiens
# SF-268 = assay: as above; details: Homo sapiens
# CAKI-1 = assay: as above; details: Homo sapiens
# SK-MEL-28 = assay: as above; details: Homo sapiens
# SK-MEL-2 = assay: as above; details: Homo sapiens
# OVCAR-8 = assay: as above; details: Homo sapiens
# HCT-15 = assay: as above; details: Homo sapiens
# CCRF-CEM = assay: as above; details: Homo sapiens
# NCI-H23 = assay: as above; details: Homo sapiens
# MOLT-4 = assay: as above; details: Homo sapiens
# MALME-3M = assay: as above; details: Homo sapiens
# A498 = assay: as above; details: Homo sapiens
# NCI-H322M = assay: as above; details: Homo sapiens
# HCC-2998 = assay: as above; details: Homo sapiens
# HS 578 T = assay: as above; details: Homo sapiens
# RPMI-8226 = assay: as above; details: Homo sapiens
# MDA-MB-468 = assay: as above; details: Homo sapiens
# NCI/ADR-RES = assay: as above; details: Homo sapiens
# NCI-H522 = assay: as above; details: Homo sapiens
# NCI-H226 = assay: as above; details: Homo sapiens
# M14 = assay: as above; details: Homo sapiens
# MCF7 = assay: as above; details: Homo sapiens
# MDA-MB-435 = assay: as above; details: Homo sapiens
# SNB-19 = assay: as above; details: Homo sapiens
# U251 = assay: as above; details: Homo sapiens
# SR = assay: as above; details: Homo sapiens
# OVCAR-4 = assay: as above; details: Homo sapiens
# KM12 = assay: as above; details: Homo sapiens
# K-562 = assay: as above; details: Homo sapiens
# HT29 = assay: as above; details: Homo sapiens
# SN12C = assay: as above; details: Homo sapiens
# IGROV1 = assay: as above; details: Homo sapiens
# RXF 393 = assay: as above; details: Homo sapiens
# UACC-257 = assay: as above; details: Homo sapiens
# OVCAR-3 = assay: as above; details: Homo sapiens
# EKVX = assay: as above; details: Homo sapiens
# [1] = read-out: percent growth inhibition
smiles,measurement,setting,value
"COc1ccc(CNc2cccc(C(=O)/C=C/c3ccc(NC(C)=O)cc3)c2)cc1OC [Compound 5h, (E)-N-(4–(3-(3-((3,4-dimethoxybenzyl)amino)phenyl)-3-oxoprop-1-en-1-yl)phenyl) acetamide]",GI50,786-0; 786-0,1570 nM
same,inhibition at 10 µM,"786-0; 786-0, read-out: percent growth inhibition",155%
same,GI50,ACHN,2070 nM
same,inhibition at 10 µM,ACHN; [1],162%
same,GI50,COLO 205; COLO 205,9390 nM
same,inhibition at 10 µM,"COLO 205; COLO 205, read-out: percent growth inhibition",145%
same,GI50,LOX IMVI,1800 nM
same,inhibition at 10 µM,LOX IMVI; [1],181%
same,GI50,T-47D,5040 nM
same,inhibition at 10 µM,T-47D; [1],104%
same,GI50,PC-3; PC-3,2810 nM
same,inhibition at 10 µM,"PC-3; PC-3, read-out: percent growth inhibition",85%
same,GI50,HL-60(TB); HL-60,2540 nM
same,inhibition at 10 µM,"HL-60(TB); HL-60, read-out: percent growth inhibition",78.8%
same,GI50,SNB-75; SNB-75,10100 nM
same,inhibition at 10 µM,"SNB-75; SNB-75, read-out: percent growth inhibition",62.8%
same,GI50,SF-268; SF-268,3010 nM
same,inhibition at 10 µM,"SF-268; SF-268, read-out: percent growth inhibition",64%
same,GI50,CAKI-1; CAKI-1,3150 nM
same,inhibition at 10 µM,"CAKI-1; CAKI-1, read-out: percent growth inhibition",56.4%
same,GI50,SK-MEL-28; SK-MEL-28,2820 nM
same,inhibition at 10 µM,"SK-MEL-28; SK-MEL-28, read-out: percent growth inhibition",108%
same,GI50,SK-MEL-2; SK-MEL-2,10600 nM
same,inhibition at 10 µM,"SK-MEL-2; SK-MEL-2, read-out: percent growth inhibition",53.7%
same,GI50,OVCAR-8; OVCAR-8,2970 nM
same,inhibition at 10 µM,"OVCAR-8; OVCAR-8, read-out: percent growth inhibition",95.7%
same,GI50,HCT-15; HCT-15,1800 nM
same,inhibition at 10 µM,"HCT-15; HCT-15, read-out: percent growth inhibition",125%
same,GI50,CCRF-CEM,2740 nM
same,inhibition at 10 µM,CCRF-CEM; [1],84.5%
same,GI50,NCI-H23; NCI-H23,4260 nM
same,inhibition at 10 µM,"NCI-H23; NCI-H23, read-out: percent growth inhibition",105%
same,GI50,MOLT-4; MOLT-4,2680 nM
same,inhibition at 10 µM,"MOLT-4; MOLT-4, read-out: percent growth inhibition",78.3%
same,GI50,MALME-3M,3500 nM
same,inhibition at 10 µM,MALME-3M; [1],151%
same,GI50,A498; A498,13700 nM
same,inhibition at 10 µM,"A498; A498, read-out: percent growth inhibition",11.5%
same,GI50,NCI-H322M,13600 nM
same,inhibition at 10 µM,NCI-H322M; [1],32%
same,GI50,HCC-2998; HCC 2998,3300 nM
same,inhibition at 10 µM,"HCC-2998; HCC 2998, read-out: percent growth inhibition",176%
same,GI50,HS 578 T,3070 nM
same,inhibition at 10 µM,HS 578 T; [1],99.1%
same,GI50,RPMI-8226; RPMI-8226,1790 nM
same,inhibition at 10 µM,"RPMI-8226; RPMI-8226, read-out: percent growth inhibition",112%
same,GI50,MDA-MB-468; MDA-MB-468,2440 nM
same,inhibition at 10 µM,"MDA-MB-468; MDA-MB-468, read-out: percent growth inhibition",166%
same,GI50,NCI/ADR-RES,2860 nM
same,GI50,NCI-H522; NCI-H522,8850 nM
same,inhibition at 10 µM,"NCI-H522; NCI-H522, read-out: percent growth inhibition",150%
same,GI50,NCI-H226; NCI-H226,12400 nM
same,inhibition at 10 µM,"NCI-H226; NCI-H226, read-out: percent growth inhibition",21.2%
same,GI50,M14; M14,1720 nM
same,inhibition at 10 µM,"M14; M14, read-out: percent growth inhibition",142%
same,GI50,MCF7; MCF7,2540 nM
same,inhibition at 10 µM,"MCF7; MCF7, read-out: percent growth inhibition",119%
same,GI50,MDA-MB-435; MDA-MB-435,2220 nM
same,inhibition at 10 µM,"MDA-MB-435; MDA-MB-435, read-out: percent growth inhibition",133%
same,GI50,SNB-19; SNB-19,5190 nM
same,inhibition at 10 µM,"SNB-19; SNB-19, read-out: percent growth inhibition",56.9%
same,GI50,U251; U-251,2880 nM
same,inhibition at 10 µM,"U251; U-251, read-out: percent growth inhibition",150%
same,GI50,SR,1930 nM
same,inhibition at 10 µM,SR; [1],98.3%
same,GI50,OVCAR-4; OVCAR-4,3090 nM
same,inhibition at 10 µM,"OVCAR-4; OVCAR-4, read-out: percent growth inhibition",89.4%
same,GI50,KM12; KM12,1940 nM
same,inhibition at 10 µM,"KM12; KM12, read-out: percent growth inhibition",159%
same,GI50,K-562; K562,2500 nM
same,inhibition at 10 µM,"K-562; K562, read-out: percent growth inhibition",92.2%
same,GI50,HT29; HT-29,3460 nM
same,inhibition at 10 µM,"HT29; HT-29, read-out: percent growth inhibition",172%
same,GI50,SN12C,2480 nM
same,inhibition at 10 µM,SN12C; [1],135%
same,GI50,IGROV1; IGROV-1,4540 nM
same,inhibition at 10 µM,"IGROV1; IGROV-1, read-out: percent growth inhibition",96.8%
same,GI50,RXF 393; RXF 393,1870 nM
same,inhibition at 10 µM,"RXF 393; RXF 393, read-out: percent growth inhibition",132%
same,GI50,UACC-257; UACC-257,9280 nM
same,inhibition at 10 µM,"UACC-257; UACC-257, read-out: percent growth inhibition",61.5%
same,GI50,OVCAR-3; OVCAR-3,2280 nM
same,inhibition at 10 µM,"OVCAR-3; OVCAR-3, read-out: percent growth inhibition",114%
same,GI50,EKVX,4090 nM
same,inhibition at 10 µM,EKVX; [1],94.9%

# — PMC11003488 (Journal of Enzyme Inhibition and Medicinal Chemistry, 2023)
